Key:
Eimeria tenella = assay: Protozoan (sporozoite) direct killing ability, Eimeria tenella; assay type: cell-based; conditions: for Eimeria tenella protozoal death rate (%): compared to PBS-treated negative control group
Procedure: In the present example, protozoan (sporozoite) direct killing ability evaluation was conducted against 3 representative Eimeria kinds known to be infected in most farms (E. tenella, E. acervulina, E. maxima).
A certain amount of oocysts of each protozoan was put in a tube containing glass beads and pulverized, and then to remove the crushed oocyst cell wall and other debris, internal sporocysts were purified using the percoll density gradient, and washed with PBS solution. A reagent comprising sodium taurocholic acid (Sigma aldrich, USA) and trypsin (Gibco, USA), respectively, was treated to sporocysts of Eimeria tenella, Eimeria acervulina and Eimeria maxima for excystation and they were incubated, and then they were washed with PBS solution once and protozoa were obtained.
After reacting the mangosteen pericarp extract, epicatechin, alpha-mangostin, xanthone and anticoccidial agents, salinomycin and diclazuril (hereinafter, material) with 3 kinds of Eimeria protozoa at various concentrations of 1 to 500 ppm, respectively, only alive protozoa (sporozoites) were counted through microscopic observation. Then, the death rate (%) of the protozoa when each material was treated compared to the PBS-treated negative control group was calculated and shown in Table 8 to Table 10 and Table 12, respectively, and the minimum concentration which directly killed the protozoa by 100% was shown in Table 11 below.

[1] = tested on: RAW264.7(Mouse macrophage cell); assay: Cytotoxicity, MTS analysis, RAW264.7; conditions: 3.1~500 ppm/well, 14 hours + 2 hours MTS, vs 5% DMSO treatment group
Source text: In the present example, using MTS analysis method (3-(4,5-[…])-5-(3-carboxymethoxyphenyl)-2-(4-sulfophenyl)-2H-tetrazolium, promega, USA), an effect on survival of cells of the mangosteen extract was investigated.
The cell lines utilized in cytotoxicity evaluation were (1) MDBK(Madin-Darby Bovine Kidney Epithelial Cells) and (2) RAW264.7(Mouse macrophage cell), and all of them were purchased from ATCC and used.
Each cell was aliquoted at a concentration of 1×10^5 cell/well in a 96-well cell culture plate, and cultured at 37° C. for 24 hours, and then each material (mangosteen extract, xanthone, alpha-mangostin and epicatechin) was treated by concentration (3.1˜500 ppm/well) and cultured at a temperature of 37° C.

[2] = Broiler growth effect (daily weight gain) due to intake in feed; assay type: in vivo, Ross broilers; conditions: for End body weight: non-infected broilers
Procedure: An efficacy evaluation test was performed in an animal experiment facility in Gyeongsangnam-do, South Korea. One-day-old female Ross broilers were individually weighed and randomly divided into groups to use in an experiment. Matters and conditions for experimental design were described in Table 16.
A breeding farm was managed according to the Korean poultry breeding management guidelines. Cages and the breeding farm were cleaned and disinfected before starting the test. The temperature of […] and the humidity of 40 to 50% of the breeding farm were maintained, and it was continuously monitored.
For the feed, Korea Feed A1-choi product was used, and each material (salinomycin (Cheil Bio Cheilsalino-60 product), xanthone (Sigma Aldrich X600 product), and the mangosteen extract prepared in Example 1-2 above) was added to the feed, respectively, at a concentration described in Table 17 below to be self-mixed. Antibiotics and supplements were not used in general feed and mixed feed, and no anticoccidial agent other than each material was added. Broilers were fed ad libitum throughout the experiment period. After putting 20 1-day-age broilers in cages randomly placed for each of the control group or test group and breeding, general feed was fed for 7 days, and then the mixed feed prepared above was ingested by dividing by control group or test group. The feed formulation administered to the control group (negative control group or positive control group) and test group was described in Table 17 below.
The body weight before feeding and on the 7th day after feeding the feed of Table 16 above into individuals was measured, and the difference was divided by the number of days to calculate the daily weight gain (ADG, g/d), and the result was shown in Table 18. For comparison between 6 treatment groups, Duncan post-test multiple comparison method was used, and statistical significance was verified using a SAS statistical program, and the result was shown in Table 18.

[3] = formulated feed 125 ppm for 7 days
[4] = formulated feed 250 ppm for 7 days

Question: Which results are given for `O=c1c2ccccc2oc2ccccc12` [Xanthone, xanthone]?
Answer: Eimeria tenella protozoal death rate (%) (Eimeria tenella; 1 ppm): 0%; Eimeria tenella protozoal death rate (%) (Eimeria tenella; 5 ppm): 0%; Eimeria tenella protozoal death rate (%) (Eimeria tenella; 10 ppm): 0%; Eimeria tenella protozoal death rate (%) (Eimeria tenella; 50 ppm): 0%; Eimeria tenella protozoal death rate (%) (Eimeria tenella; 100 ppm): 0%; Eimeria tenella protozoal death rate (%) (Eimeria tenella; 125 ppm): 10%; Eimeria tenella protozoal death rate (%) (Eimeria tenella; 250 ppm): 0%; Eimeria tenella protozoal death rate (%) (Eimeria tenella; 500 ppm): 15%; Minimum concentrataion of killing protozoa 100% (ppm) (Eimeria tenella; Eimeria tenella, Table 15, method similar to Example 2-1): ≥500 ppm; Minimum concentration for killing 100% protozoa (ppm), Eimeria tenella (Eimeria tenella; tested 1 to 500 ppm): >500 ppm; Minimum concentrataion of cytotoxicity at which cells of 50% or more survive (ppm) [1]: ≥62.5 ppm; Daily weight gain compared to the negative control group, in words ([2]; Table 18, Duncan p < 0.05, mangosteen extract also vs positive control and xanthone groups): rather reduced; Daily weight gain (ADG) [2, 3]: 43.86 g/day; End-initial body weight (7 days, g) [2, 3]: 307 g; End body weight [2, 3]: 509 g; Daily weight gain (ADG) [2, 4]: 40.57 g/day; End-initial body weight (7 days, g) [2, 4]: 284 g; End body weight [2, 4]: 485 g

From patent US20230321171A1, “ANTI-COCCIDIAL COMPOSITION COMPRISING MANGOSTEEN AND USES THEREOF” (CJ CHEILJEDANG CORPORATION, priority 2020, published 2023)
